Columns and labels:
[1] = system: Aurora A, B, and C phosphorylation in HeLa cells arrested in mitosis; experiment: Western blot, autophosphorylation of Aurora kinases; assay type: cell-based, human; conditions: 20 μM, 12 h
Protocol: Western Blot analysis: Western blotting was carried out as described previously. The primary antibodies used were from Cell Signaling (Histone H3; p-Histone H3^S10 and Phospho-Aurora A (Thr288)/Aurora B (Thr232)/Aurora C (Thr198)) and used at recommended dilution. For cell synchronization at prometaphase, HeLa cells were treated with 50 ng/mL nocodazole (NZ) (Santa Cruz Biotechnology) for 12 h. All experiments were carried out at least twice.

MDA-MB-231 cells = experiment: Annexin V staining / IncuCyte apoptosis and proliferation assay; assay type: cell-based, human
Protocol: Annexin V staining: Cell death mechanism and cell proliferation assays were analysed using the IncuCyte Apoptosis Assay method using the Annexin V Green reagent (Essen Biosciences, Ann Arbor, MI, USA) and the IncuCyte S3 and IncuCyte ZOOM software (Version 2018B, Bohemia, NY, USA) according to supplier’s protocol. Statistical analysis was carried out in Graph Pad Prism 5. All experiments were carried out at least twice.

HeLa cells = experiment: Cell cycle analysis, propidium iodide flow cytometry; assay type: cell-based, human; conditions: asynchronous HeLa, 10 μM, 12–72 h
Protocol: Cell cycle analysis: Propidium iodide staining and flow cytometry analysis were carried out as described previously with minor modifications. Briefly, 250,000 HeLa cells (50,000 cells/mL) were treated with 10 μM oxostephanine (1) and harvested at the indicated time points. All experiments were carried out at least twice.

Aurora A = biological target: T1, Aurora A (Homo sapiens, UniProt O14965); experiment: In vitro kinase assay (ADP-Glo), Aurora A; assay type: biochemical; conditions: ± standard deviation, n = 2
T1 construct: purchased Promega
T1 sequence (O14965 1-403): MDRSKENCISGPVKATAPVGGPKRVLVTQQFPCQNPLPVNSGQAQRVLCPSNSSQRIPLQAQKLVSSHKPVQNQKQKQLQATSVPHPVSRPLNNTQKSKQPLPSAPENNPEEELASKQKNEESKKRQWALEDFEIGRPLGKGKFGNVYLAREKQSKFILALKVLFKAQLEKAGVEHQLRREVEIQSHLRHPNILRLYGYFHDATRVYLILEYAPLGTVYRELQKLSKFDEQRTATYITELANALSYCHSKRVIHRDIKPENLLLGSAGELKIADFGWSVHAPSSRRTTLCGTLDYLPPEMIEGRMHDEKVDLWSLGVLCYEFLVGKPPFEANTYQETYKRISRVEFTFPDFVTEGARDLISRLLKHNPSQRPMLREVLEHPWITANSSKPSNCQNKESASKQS
Protocol: In vitro kinase assay: The Aurora A and B kinase assays were carried out using the Promega ADP-Glo based Kinase Activity Profiling system. The protocols for the Aurora A/(Myelin Basic Protein (MBP) and Aurora B/MBP assay kits were according to those recommended by the suppliers. The concentration range used was from 20 μM–39.1 nM in 384-well plates. The luminescent output from the kinase assay was read on a Biotek Synergy H4 plate reader.

COc1cccc2c1C(=O)c1nccc3cc4c(c-2c13)OCO4 [Oxostephanine 1, oxostephanine]
Autophosphorylation of Aurora kinases A, B and C [1]: inhibits the auto-phosphorylation of all three Aurora kinases | Time to inhibition of proliferation (MDA-MB-231 cells; MDA-MB-231): ≤ 12 h | Apoptotic effect compared to camptothecin (MDA-MB-231 cells; MDA-MB-231, 10 μM, 1-way ANOVA p < 0.05): much stronger apoptotic effect | Time to start of apoptosis (Annexin V) (MDA-MB-231 cells; MDA-MB-231, post-treatment): ≤ 16 h | Cell cycle distribution (HeLa cells): induces a transient G2/M arrest and apoptotic cell death | IC50 (Aurora A): 422 ± 130 nM
